Measured values from patent publication US11427615B2, “Peptide compound and application thereof, and composition containing peptide compound” (XDCEXPLORER (SHANGHAI) CO., LTD., priority 2017, dated 2022).
Non-standard residues stand in square brackets, D forms with d. Residues, ends and D or L forms follow the SMILES beside them. dPhe(2,4-Cl2) = N[C@H](Cc1ccc(Cl)cc1Cl)C(=O)O; dPhe(3-Cl) = N[C@H](Cc1cccc(Cl)c1)C(=O)O; Pro(4,4-F2) = O=C(O)[C@@H]1CC(F)(F)CN1; dAla(2-furyl) = N[C@H](Cc1ccco1)C(=O)O; Arg(Me) = CNC(=N)NCCC[C@H](N)C(=O)O; Hyp = O=C(O)[C@@H]1C[C@@H](O)CN1; 2Thi = N[C@@H](Cc1cccs1)C(=O)O; NMeL = CN[C@@H](CC(C)C)C(=O)O; Ac6c = NC1(C(=O)O)CCCCC1; Ac5c = NC1(C(=O)O)CCCC1; Aze = O=C(O)[C@@H]1CCN1; Thp = NC1(C(=O)O)CCOCC1; azaGly = NNC(=O)O; βAla = NCCC(=O)O

target: T1, human kiss1 receptor (GPR54) (Homo sapiens, UniProt Q969F8); experiment: Kiss1 receptor (GPR54) binding activity of agonists, FRET detection in NFAT-bla CHO-K1 cells; assay type: cell-based; details: GPR54; measured according to the method of effect Embodiment 1; preliminary data; read-out: Preliminary measurement data (GPR54) EC50
T1 construct: host or cells: NFAT-bla CHO-K1 cells (Chinese hamster ovary), purchased recombinant cell line
T1 sequence (Q969F8 whole entry): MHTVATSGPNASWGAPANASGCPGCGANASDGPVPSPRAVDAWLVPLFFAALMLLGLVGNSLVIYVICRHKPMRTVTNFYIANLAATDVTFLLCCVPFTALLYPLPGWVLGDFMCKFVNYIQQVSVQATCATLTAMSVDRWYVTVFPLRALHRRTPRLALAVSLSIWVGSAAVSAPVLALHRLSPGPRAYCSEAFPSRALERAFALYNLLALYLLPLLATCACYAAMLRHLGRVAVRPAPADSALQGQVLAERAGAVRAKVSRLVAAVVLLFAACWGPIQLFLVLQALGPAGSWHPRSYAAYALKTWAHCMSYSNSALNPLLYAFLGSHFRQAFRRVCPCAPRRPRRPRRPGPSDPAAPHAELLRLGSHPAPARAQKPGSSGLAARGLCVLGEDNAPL

EC50 [nM]	SMILES
0.122	CNC(=N)NCCC[C@H](NC(=O)[C@H](CC(C)C)NC(=O)NNC(=O)[C@H](Cc1ccccc1)NC(=O)[C@@H](NC(=O)[C@H](CC(N)=O)NC(=O)[C@@H]1C[C@@H](O)CN1C(=O)[C@@H](Cc1cccc(Cl)c1)NC(C)=O)[C@@H](C)O)C(=O)N[C@@H](Cc1c[nH]c2ccccc12)C(N)=O [YA-215, Ac-[D-Phe(3-Cl)]-Hyp-Asn-Thr-Phe-azaGly-Leu-Arg(Me)-Trp-NH2] (Ac-[dPhe(3-Cl)][Hyp]NTF[azaGly]L[Arg(Me)]W-NH2)
0.26	CNC(=N)NCCC[C@H](NC(=O)[C@H](CC(C)C)NC(=O)C1(NC(=O)[C@H](Cc2ccccc2)NC(=O)[C@@H](NC(=O)[C@H](CC(N)=O)NC(=O)[C@@H]2C[C@@H](O)CN2C(=O)[C@@H](Cc2ccc(O)cc2)NC(C)=O)[C@@H](C)O)CCOCC1)C(=O)N[C@@H](Cc1c[nH]c2ccccc12)C(N)=O [YA-354, Ac-(D-Tyr)-Hyp-Asn-Thr-Phe-morpholino cyclic amino acid-Leu-Arg(Me)-Trp-NH2] (Ac-[dY][Hyp]NTF[Thp]L[Arg(Me)]W-NH2)
0.058	CNC(=N)NCCC[C@H](NC(=O)[C@H](CC(C)C)NC(=O)NNC(=O)[C@H](Cc1ccccc1)NC(=O)[C@@H]1CCN1C(=O)[C@H](CC(N)=O)NC(=O)[C@@H]1C[C@@H](O)CN1C(=O)[C@@H](Cc1ccc(O)cc1)NC(C)=O)C(=O)N[C@@H](Cc1c[nH]c2ccccc12)C(N)=O [YA-388, Ac-(D-Tyr)-Hyp-Asn-Aze-Phe-azaGly-Leu-Arg(Me)-Trp-NH2] (Ac-[dY][Hyp]N[Aze]F[azaGly]L[Arg(Me)]W-NH2)
0.027	CNC(=N)NCCC[C@H](NC(=O)[C@H](CC(C)C)NC(=O)NNC(=O)[C@H](Cc1ccccc1)NC(=O)[C@@H](NC(=O)[C@H](CC(N)=O)NC(=O)C1(NC(=O)[C@@H](Cc2ccc(Cl)cc2Cl)NC(C)=O)CCCCC1)[C@@H](C)O)C(=O)N[C@@H](Cc1c[nH]c2ccccc12)C(N)=O [YA-260, Ac-[D-Phe(2,4-DiCl)]-A6c-Asn-Thr-Phe-azaGly-Leu-Arg(Me)-Trp-NH2] (Ac-[dPhe(2,4-Cl2)][Ac6c]NTF[azaGly]L[Arg(Me)]W-NH2)
0.86	CNC(=N)NCCC[C@H](NC(=O)[C@H](CC(C)C)NC(=O)NNC(=O)[C@H](Cc1ccccc1)NC(=O)[C@@H](Cc1ccco1)NC(=O)[C@H](CC(N)=O)NC(=O)[C@@H]1C[C@@H](O)CN1C(=O)[C@@H](Cc1ccc(O)cc1)NC(C)=O)C(=O)N[C@@H](Cc1c[nH]c2ccccc12)C(N)=O [YA-166] (Ac-[dY][Hyp]N[dAla(2-furyl)]F[azaGly]L[Arg(Me)]W-NH2)
0.46	CNC(=N)NCCC[C@H](NC(=O)[C@H](CC(C)C)NC(=O)C1(NC(=O)[C@H](Cc2ccccc2)NC(=O)[C@@H](NC(=O)[C@H](CC(N)=O)NC(=O)[C@@H]2C[C@@H](O)CN2C(=O)[C@@H](Cc2ccc(O)cc2)NC(C)=O)[C@@H](C)O)CCCC1)C(=O)N[C@@H](Cc1c[nH]c2ccccc12)C(N)=O [YA-282, Ac-(D-Tyr)-Hyp-Asn-Thr-Phe-cycloLeu-Leu-Arg(Me)-Trp-NH2] (Ac-[dY][Hyp]NTF[Ac5c]L[Arg(Me)]W-NH2)
0.65	CNC(=N)NCCC[C@H](NC(=O)[C@H](CC(C)C)NC(=O)C1(NC(=O)[C@H](Cc2ccccc2)NC(=O)[C@@H](NC(=O)[C@H](CC(N)=O)NC(=O)[C@@H]2CC(F)(F)CN2C(=O)[C@@H](Cc2ccc(O)cc2)NC(C)=O)[C@@H](C)O)CCCCC1)C(=O)N[C@@H](Cc1c[nH]c2ccccc12)C(N)=O [YA-251, Ac-D-Tyr-Pro(diF)-Asn-Thr-Phe-A6c-Leu-Arg(Me)-Trp-NH2] (Ac-[dY][Pro(4,4-F2)]NTF[Ac6c]L[Arg(Me)]W-NH2)
1.85	CNC(=N)NCCC[C@H](NC(=O)[C@H](CC(C)C)N(C)C(=O)CCNC(=O)[C@H](Cc1ccccc1)NC(=O)[C@@H](NC(=O)[C@H](CC(N)=O)NC(=O)[C@@H]1C[C@@H](O)CN1C(=O)[C@@H](Cc1ccc(Cl)cc1Cl)NC(C)=O)[C@@H](C)O)C(=O)N[C@@H](Cc1c[nH]c2ccccc12)C(N)=O [YA-187, Ac-[D-Phe(2,4-DiCl)]-Hyp-Asn-Thr-Phe-BetaAla-NMeLeu-Arg(Me)-Trp-NH2] (Ac-[dPhe(2,4-Cl2)][Hyp]NTF[βAla][NMeL][Arg(Me)]W-NH2)
3.6	CNC(=N)NCCC[C@H](NC(=O)[C@H](CC(C)C)NC(=O)C1(NC(=O)[C@H](Cc2ccccc2)NC(=O)[C@@H](NC(=O)[C@H](CC(N)=O)NC(=O)[C@H](Cc2cccs2)NC(=O)[C@@H](Cc2ccc(Cl)cc2Cl)NC(C)=O)[C@@H](C)O)CCCCC1)C(=O)N[C@@H](Cc1c[nH]c2ccccc12)C(N)=O [YA-206, Ac-[D-Phe(2,4-DiCl)]-Thi-Asn-Thr-Phe-A6c-Leu-Arg(Me)-Trp-NH2] (Ac-[dPhe(2,4-Cl2)][2Thi]NTF[Ac6c]L[Arg(Me)]W-NH2)
